Results from PubChem BioAssay (NCI).
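1) Cells in 96-well plates. 2) Compound, 48 h, 5 concentrations. 3) Linear interpolation between surrounding doses. 4) Unreached endpoint = highest concentration. TGI: concentration producing complete growth inhibition.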

Legend:
Assay in all cases: inhibition of tumour cell growth, NCI panel, 48 h
DU-145 prostate = tested on: DU-145 prostate
K-562 leukemia = tested on: K-562 leukemia
OVCAR-5 ovarian = tested on: OVCAR-5 ovarian
SR leukemia = tested on: SR leukemia
NCI-H460 lung = tested on: NCI-H460 lung
MCF7 breast = tested on: MCF7 breast
OVCAR-8 ovarian = tested on: OVCAR-8 ovarian
OVCAR-3 ovarian = tested on: OVCAR-3 ovarian
HS 578T breast = tested on: HS 578T breast
NCI-H226 lung = tested on: NCI-H226 lung
RXF 393 renal = tested on: RXF 393 renal
UACC-62 melanoma = tested on: UACC-62 melanoma
NCI/ADR-RES ovarian = tested on: NCI/ADR-RES ovarian
MDA-MB-435 = tested on: MDA-MB-435
MDA-MB-231 breast = tested on: MDA-MB-231 breast
CCRF-CEM leukemia = tested on: CCRF-CEM leukemia
SN12C renal = tested on: SN12C renal
HL-60(TB) leukemia = tested on: HL-60(TB) leukemia
HCT-116 colon = tested on: HCT-116 colon
MOLT-4 leukemia = tested on: MOLT-4 leukemia
HOP-92 NSCLC = tested on: HOP-92 NSCLC
UO-31 renal = tested on: UO-31 renal
SK-MEL-28 melanoma = tested on: SK-MEL-28 melanoma
PC-3 prostate = tested on: PC-3 prostate
MDA-N = tested on: MDA-N
SF-268 CNS = tested on: SF-268 CNS
HT29 colon = tested on: HT29 colon
NCI-H23 lung = tested on: NCI-H23 lung
OVCAR-4 ovarian = tested on: OVCAR-4 ovarian
A498 renal = tested on: A498 renal
HOP-62 NSCLC = tested on: HOP-62 NSCLC
TK-10 renal = tested on: TK-10 renal
BT-549 breast = tested on: BT-549 breast
A549 NSCLC = tested on: A549 NSCLC
EKVX NSCLC = tested on: EKVX NSCLC
SF-295 CNS = tested on: SF-295 CNS
SK-MEL-2 melanoma = tested on: SK-MEL-2 melanoma
SNB-75 CNS = tested on: SNB-75 CNS
HCT-15 colon = tested on: HCT-15 colon
RPMI-8226 leukemia = tested on: RPMI-8226 leukemia
KM12 colon = tested on: KM12 colon
U251 CNS = tested on: U251 CNS
COLO 205 colon = tested on: COLO 205 colon
IGROV1 ovarian = tested on: IGROV1 ovarian
SK-OV-3 ovarian = tested on: SK-OV-3 ovarian
MALME-3M melanoma = tested on: MALME-3M melanoma
LOX IMVI melanoma = tested on: LOX IMVI melanoma
SW-620 colon = tested on: SW-620 colon
SK-MEL-5 melanoma = tested on: SK-MEL-5 melanoma
SF-539 CNS = tested on: SF-539 CNS
M14 melanoma = tested on: M14 melanoma
SNB-19 CNS = tested on: SNB-19 CNS
ACHN renal = tested on: ACHN renal
786-0 renal = tested on: 786-0 renal
CAKI-1 renal = tested on: CAKI-1 renal

Compound: Cc1nn(C(=O)c2ccccc2O)c2c1C(c1ccc(O)cc1O)SC(N)=N2 (stereo not given)
- TGI (DU-145 prostate): > 10 µM
- TGI (K-562 leukemia): > 10 µM
- TGI (OVCAR-5 ovarian): 3.91 µM
- TGI (SR leukemia): > 10 µM
- TGI (NCI-H460 lung): > 10 µM
- TGI (MCF7 breast): > 10 µM
- TGI (OVCAR-8 ovarian): > 10 µM
- TGI (OVCAR-3 ovarian): > 10 µM
- TGI (HS 578T breast): 8.84 µM
- TGI (NCI-H226 lung): 3.82 µM
- TGI (RXF 393 renal): > 10 µM
- TGI (UACC-62 melanoma): 5.71 µM
- TGI (NCI/ADR-RES ovarian): 9.33 µM
- TGI (MDA-MB-435): > 10 µM
- TGI (MDA-MB-231 breast): > 10 µM
- TGI (CCRF-CEM leukemia): > 10 µM
- TGI (SN12C renal): > 10 µM
- TGI (HL-60(TB) leukemia): > 10 µM
- TGI (HCT-116 colon): > 10 µM
- TGI (MOLT-4 leukemia): > 10 µM
- TGI (HOP-92 NSCLC): > 10 µM
- TGI (UO-31 renal): 8.02 µM
- TGI (SK-MEL-28 melanoma): > 10 µM
- TGI (PC-3 prostate): > 10 µM
- TGI (MDA-N): > 10 µM
- TGI (SF-268 CNS): > 10 µM
- TGI (HT29 colon): > 10 µM
- TGI (NCI-H23 lung): > 10 µM
- TGI (OVCAR-4 ovarian): > 10 µM
- TGI (A498 renal): > 10 µM
- TGI (HOP-62 NSCLC): > 10 µM
- TGI (TK-10 renal): > 10 µM
- TGI (BT-549 breast): 8.39 µM
- TGI (A549 NSCLC): > 10 µM
- TGI (EKVX NSCLC): > 10 µM
- TGI (SF-295 CNS): > 10 µM
- TGI (SK-MEL-2 melanoma): > 10 µM
- TGI (SNB-75 CNS): > 10 µM
- TGI (HCT-15 colon): > 10 µM
- TGI (RPMI-8226 leukemia): > 10 µM
- TGI (KM12 colon): > 10 µM
- TGI (U251 CNS): > 10 µM
- TGI (COLO 205 colon): > 10 µM
- TGI (IGROV1 ovarian): > 10 µM
- TGI (SK-OV-3 ovarian): > 10 µM
- TGI (MALME-3M melanoma): > 10 µM
- TGI (LOX IMVI melanoma): > 10 µM
- TGI (SW-620 colon): > 10 µM
- TGI (SK-MEL-5 melanoma): > 10 µM
- TGI (SF-539 CNS): > 10 µM
- TGI (M14 melanoma): > 10 µM
- TGI (SNB-19 CNS): > 10 µM
- TGI (ACHN renal): > 10 µM
- TGI (786-0 renal): > 10 µM
- TGI (CAKI-1 renal): > 10 µM
